According to ChEMBL document CHEMBL4699558, “Lead optimization of 8-(methylamino)-2-oxo-1,2-dihydroquinolines as bacterial type II topoisomerase inhibitors” (Bioorg Med Chem, 2020):
Converted amounts (≈) assume the structure as drawn.

Columns and labels:
Streptococcus anginosus = assay: Antibacterial activity against Streptococcus anginosus ATCC 33397 by CLSI method; assay type: functional
Streptococcus pneumoniae [1] = assay: Antibacterial activity against genotype penicillin-resistant Streptococcus pneumoniae by CLSI method; assay type: functional
Staphylococcus aureus [2] = assay: Antibacterial activity against Methicillin-resistant Staphylococcus aureus by CLSI method; assay type: functional
Enterococcus faecalis [3] = assay: Antibacterial activity against vancomycin-resistant Enterococcus faecalis ATCC 51575 by CLSI method; assay type: functional
Escherichia coli [4] = assay: Antibacterial activity against Escherichia coli ATCC 25922 by CLSI method; assay type: functional
Streptococcus pneumoniae [5] = assay: Antibacterial activity against Streptococcus pneumoniae ATCC 49619 by CLSI method; assay type: functional
Enterococcus = assay: Antibacterial activity against Vancomycin-resistant Enterococcus by CLSI method; assay type: functional
Enterococcus faecalis [6] = assay: Antibacterial activity against Enterococcus faecalis ATCC 29212 by CLSI method; assay type: functional
Enterococcus faecium [7] = assay: Antibacterial activity against vancomycin-resistant Enterococcus faecium ATCC 51559 by CLSI method; assay type: functional
DNA gyrase = DNA gyrase (Escherichia coli, UniProt P0AES4+P0AES6); assay: Inhibition of Escherichia coli DNA gyrase by measuring supercoiling activity incubated for 60 mins by fluorescence based assay; assay type: protein-complex assay
Escherichia coli [8] = assay: Antibacterial activity against Escherichia coli ATCC 25922 in presence of PAbetaN by CLSI method; assay type: functional
Enterococcus faecium [9] = assay: Antibacterial activity against Enterococcus faecium ATCC 35667 by CLSI method; assay type: functional
Haemophilus influenzae = assay: Antibacterial activity against Haemophilus influenzae ATCC 43095 by CLSI method; assay type: functional
[10] = Inhibition of Escherichia coli topoisomerase IV by measuring relaxation activity incubated for 30 mins by fluorescence based assay
Staphylococcus aureus [11] = assay: Antibacterial activity against Staphylococcus aureus ATCC 29213 by CLSI method; assay type: functional
Staphylococcus aureus [12] = assay: Antibacterial activity against community-acquired Methicillin -resistant Staphylococcus aureus ATCC BAA-1556 by CLSI method; assay type: functional
Staphylococcus aureus [13] = assay: Antibacterial activity against hospital-acquired Methicillin -resistant Staphylococcus aureus ATCC BAA-811 by CLSI method; assay type: functional

| Compound | MIC (Escherichia coli [4]) | IC50 (DNA gyrase) | MIC (Escherichia coli [8]) | MIC (Staphylococcus aureus [11]) | other results |
| --- | --- | --- | --- | --- | --- |
| CN[C@H](CC(C)C)C(=O)N[C@H]1C(=O)N[C@@H](CC(N)=O)C(=O)N[C@H]2C(=O)N[C@H]3C(=O)N[C@H](C(=O)N[C@H](C(=O)O)c4cc(O)cc(O)c4-c4cc3ccc4O)[C@H](O)c3ccc(c(Cl)c3)Oc3cc2cc(c3O[C@@H]2O[C@H](CO)[C@@H](O)[C@H](O)[C@H]2O[C@H]2C[C@](C)(N)[C@H](O)[C@H](C)O2)Oc2ccc(cc2Cl)[C@H]1O [VANCOMYCIN] | > 128 µg/mL | – | – | – | MIC (Streptococcus anginosus): 0.5 µg/mL (≈ 0.345 µM); MIC50 (Streptococcus pneumoniae [1]): 0.25 µg/mL (≈ 0.173 µM); MIC90 (Streptococcus pneumoniae [1]): 0.5 µg/mL (≈ 0.345 µM); MIC50 (Staphylococcus aureus [2]): 1 µg/mL (≈ 0.69 µM); MIC90 (Staphylococcus aureus [2]): 2 µg/mL (≈ 1.38 µM); MIC (Enterococcus faecalis [3]): > 128 µg/mL; MIC (Streptococcus pneumoniae [5]): 0.25 µg/mL (≈ 0.173 µM); MIC50 (Enterococcus): > 128 µg/mL; MIC90 (Enterococcus): > 128 µg/mL; MIC (Enterococcus faecalis [6]): 2 µg/mL (≈ 1.38 µM); MIC (Enterococcus faecium [7]): > 128 µg/mL |
| C[C@H]1COc2c(N3CCN(C)CC3)c(F)cc3c(=O)c(C(=O)O)cn1c23.C[C@H]1COc2c(N3CCN(C)CC3)c(F)cc3c(=O)c(C(=O)O)cn1c23.O [LEVOFLOXACIN] | – | – | – | – | MIC50 (Streptococcus pneumoniae [1]): 2 µg/mL; MIC90 (Streptococcus pneumoniae [1]): 2 µg/mL; MIC50 (Staphylococcus aureus [2]): 16 µg/mL; MIC90 (Staphylococcus aureus [2]): > 128 µg/mL; MIC50 (Enterococcus): 8 µg/mL; MIC90 (Enterococcus): 128 µg/mL |
| CNc1cc(F)cc2cc(C(=O)Nc3ccc(C(=O)NS(=O)(=O)N(C)C)cc3)c(=O)[nH]c12 | 16 µg/mL (≈ 34.7 µM) | 0.43 nM | ≤ 0.015 µg/mL | – | MIC (Streptococcus anginosus): 0.12 µg/mL (≈ 0.26 µM); MIC (Enterococcus faecium [9]): 0.06 µg/mL (≈ 0.13 µM); MIC (Haemophilus influenzae): 0.06 µg/mL (≈ 0.13 µM); IC50 [10]: 51.9 nM; MIC (Streptococcus pneumoniae [5]): 0.06 µg/mL (≈ 0.13 µM); MIC (Enterococcus faecalis [6]): 0.03 µg/mL (≈ 0.065 µM) |
| CNc1cc(F)cc2c(NCC3(N)CCC3)c(C(=O)Nc3ccc(C(=O)O)cc3)c(=O)[nH]c12.O=CO | > 32 µg/mL | 2.15 nM | 0.25 µg/mL | > 32 µg/mL | – |
| CNc1cc(F)cc2cc(C(=O)Nc3ccc(C(N)=O)cc3CN(C)C3CCCCC3)c(=O)[nH]c12 | > 32 µg/mL | 2.48 nM | ≤ 0.03 µg/mL | > 32 µg/mL | – |
| CNc1cc(F)cc2cc(C(=O)Nc3ccc(C(=O)O)cc3CNCCO)c(=O)[nH]c12.Cl | > 64 µg/mL | 129 nM | 2 µg/mL | > 64 µg/mL | – |
| CNc1cc(F)cc2cc(C(=O)Nc3ccc(CO)cc3CN(C)C3CCCCC3)c(=O)[nH]c12 | 16 µg/mL (≈ 34.3 µM) | 1.92 nM | 0.06 µg/mL | 4 µg/mL (≈ 8.57 µM) | – |
| CNc1cc(F)cc2cc(C(=O)Nc3ccc(C(=O)O)cc3CN(CC(=O)O)C3CCCCC3)c(=O)[nH]c12 | > 64 µg/mL | 0.57 nM | 0.12 µg/mL | 32 µg/mL (≈ 61 µM) | IC50 [10]: 76.3 nM |
| CNc1cc(F)cc2cc(C(=O)Nc3ccc(C(=O)O)c(O)c3)c(=O)[nH]c12 | > 32 µg/mL | 2.05 nM | 1 µg/mL | > 32 µg/mL | – |
| CC(=O)NC[C@H]1CN(c2ccc(N3CCOCC3)c(F)c2)C(=O)O1 [LINEZOLID] | – | – | – | – | MIC50 (Staphylococcus aureus [2]): 4 µg/mL (≈ 11.9 µM); MIC90 (Staphylococcus aureus [2]): 4 µg/mL (≈ 11.9 µM); MIC50 (Enterococcus): 4 µg/mL (≈ 11.9 µM); MIC90 (Enterococcus): 4 µg/mL (≈ 11.9 µM) |
| CNc1cc(F)cc2c(NCC3CCNCC3)c(C(=O)Nc3ccc(C(=O)O)cc3)c(=O)[nH]c12.O=CO | > 32 µg/mL | 1.31 nM | 0.5 µg/mL | > 32 µg/mL | – |
| CNCCNc1c(C(=O)Nc2ccc(C(=O)O)cc2)c(=O)[nH]c2c(NC)cc(F)cc12.O=CO | > 16 µg/mL | 2.09 nM | 8 µg/mL | > 16 µg/mL | – |
| CNc1cc(F)cc2cc(C(=O)Nc3ccc(C(=O)NCCN)cc3)c(=O)[nH]c12.Cl | > 8 µg/mL | 9.4 nM | > 8 µg/mL | > 8 µg/mL | – |
| Cc1onc(-c2ccccc2)c1C(=O)N[C@@H]1C(=O)N2[C@@H]1SC(C)(C)[C@@H]2C(=O)O [OXACILLIN] | – | – | – | – | MIC50 (Staphylococcus aureus [2]): > 128 µg/mL; MIC90 (Staphylococcus aureus [2]): > 128 µg/mL |
| CNCCCc1c(C(=O)Nc2ccc(C(=O)O)cc2)c(=O)[nH]c2c(NC)cc(F)cc12.O=C(O)C(F)(F)F | > 32 µg/mL | 131 nM | > 32 µg/mL | – | – |
| CC[C@H]1OC(=O)[C@H](C)[C@@H](O[C@H]2C[C@@](C)(OC)[C@@H](O)[C@H](C)O2)[C@H](C)[C@@H](O[C@@H]2O[C@H](C)C[C@H](N(C)C)[C@H]2O)[C@](C)(O)C[C@@H](C)CN(C)[C@H](C)[C@@H](O)[C@]1(C)O [AZITHROMYCIN] | – | – | – | – | MIC50 (Streptococcus pneumoniae [1]): > 128 µg/mL; MIC90 (Streptococcus pneumoniae [1]): > 128 µg/mL |
| CC1(C)S[C@@H]2[C@H](NC(=O)Cc3ccccc3)C(=O)N2[C@H]1C(=O)O [PENICILLIN G] | – | – | – | – | MIC50 (Streptococcus pneumoniae [1]): 2 µg/mL (≈ 5.98 µM); MIC90 (Streptococcus pneumoniae [1]): 4 µg/mL (≈ 12 µM) |
| CNc1cc(F)cc2c(NCC3CNC3)c(C(=O)Nc3ccc(C(=O)O)cc3)c(=O)[nH]c12.O=CO | > 16 µg/mL | 0.66 nM | – | > 16 µg/mL | – |
| CNc1cc(F)cc2cc(C(=O)Nc3ccc(C(=O)O)cc3CN3CCCCC3)c(=O)[nH]c12 | 8 µg/mL (≈ 17.7 µM) | 0.31 nM | ≤ 0.03 µg/mL | 4 µg/mL (≈ 8.84 µM) | MIC (Streptococcus anginosus): 0.03 µg/mL (≈ 0.0663 µM); MIC (Enterococcus faecalis [3]): 0.015 µg/mL (≈ 0.0332 µM); MIC (Enterococcus faecium [9]): 0.03 µg/mL (≈ 0.0663 µM); MIC (Haemophilus influenzae): 0.06 µg/mL (≈ 0.133 µM); MIC (Staphylococcus aureus [12]): 4 µg/mL (≈ 8.84 µM); IC50 [10]: 15.3 nM; MIC (Streptococcus pneumoniae [5]): 0.03 µg/mL (≈ 0.0663 µM); MIC (Enterococcus faecalis [6]): 0.015 µg/mL (≈ 0.0332 µM); MIC (Staphylococcus aureus [13]): 4 µg/mL (≈ 8.84 µM); MIC (Enterococcus faecium [7]): 0.015 µg/mL (≈ 0.0332 µM) |
